Experimental data published in paper PMC12245108 (Advanced Science, 2025).
Where a SMILES comes first, the peptide text is derived from it. The star is where a group is joined. NHCH2CN = N#CCN*

Experiments:
Vaccinia virus = test: microbe, parasite or virus in culture; format: cell-based; settings: Orthopoxvirus vaccinia, HeLa, 24 h, read-out: EC50 for vaccinia virus replication inhibition
in vitro = settings: human
MPXV I7L protease = MPXV I7L protease (Monkeypox virus, UniProt Q8V512); test: biochemical; settings: for inhibition at 100 µM: pH 7.5, read-out: inhibition rate

Row | SMILES | IC50 (MPXV I7L protease) [nM] | inhibition at 100 µM (MPXV I7L protease) [%] | other results
1 | CC[C@H](C)[C@H](NC(=O)Cc1ccccc1)C(=O)N[C@@H](C)C(=O)NCC#N [compound 10, (2S,3S)-N-((S)-1-((cyanomethyl)amino)-1-oxopropan-2-yl)-3-methyl-2-(2-phenylacetamido)pentanamide] | 122 | – | EC50 (Vaccinia virus): 6.3 µM; CC50 (in vitro): > 400 µM; cytotoxicity (HeLa cells): no detectable cytotoxicity
2 | CCCC[C@H](NC(=O)[C@@H]1[C@@H]2[C@H](CN1C(=O)[C@@H](NC(=O)NC1(CS(=O)(=O)C(C)(C)C)CCCCC1)C(C)(C)C)C2(C)C)C(=O)C(=O)NC1CC1 [Narlaprevir, reference compound] | – | < 50 | –
3 | CC[C@H](C)[C@H](NC(=O)[C@@H](C)c1ccccc1)C(=O)N[C@@H](C)C(=O)NCC#N [compound 11, (2S,3S)-N-((S)-1-((cyanomethyl)amino)-1-oxopropan-2-yl)-3-methyl-2-((S)-2-phenylpropanamido)pentanamide] | 69 | – | EC50 (Vaccinia virus): 6 µM; CC50 (in vitro): > 400 µM; cytotoxicity (HeLa cells): no detectable cytotoxicity
4 | CC(C)(C)[C@H](NC(=O)C(F)(F)F)C(=O)N1C[C@H]2[C@@H]([C@H]1C(=O)N[C@H](C#N)C[C@@H]1CCNC1=O)C2(C)C [Nirmatrelvir, reference compound] | – | < 50 | –
5 | CC[C@H](C)[C@H](NC(=O)[C@@H](NC(=O)[C@H](CCSC)NC(C)=O)C(C)C)C(=O)N[C@@H](C)C(=O)NCC#N [compound 2, (2S,3S)-2-((S)-2-((S)-2-acetamido-4-(methylthio)butanamido)-3-methylbutanamido)-N-((S)-1-((cyanomethyl)amino)-1-oxopropan-2-yl)-3-methylpentanamide] (Ac-MVIA-NHCH2CN) | 132 | – | –
6 | CC(=O)N[C@@H](Cc1ccc(O)cc1)C(=O)N[C@@H](Cc1ccccc1)C(=O)N[C@@H](Cc1ccc(O)cc1)C(=O)N[C@@H](C)C(=O)NCC#N [compound 3, (S)-2-acetamido-N-((S)-1-(((S)-1-(((S)-1-((cyanomethyl)amino)-1-oxopropan-2-yl)amino)-3-(4-hydroxyphenyl)-1-oxopropan-2-yl)amino)-1-oxo-3-phenylpropan-2-yl)-3-(4-hydroxyphenyl)propanamide] (Ac-YFYA-NHCH2CN) | 79 ± 15 | – | –
7 | CC[C@H](C)[C@H](NC(C)=O)C(=O)N[C@H](C(=O)N[C@@H](CC(N)=O)C(=O)N[C@@H](C)C(=O)NCC#N)[C@@H](C)O [compound 4, (S)-2-((2S,3R)-2-((2S,3S)-2-acetamido-3-methylpentanamido)-3-hydroxybutanamido)-N^1-((S)-1-((cyanomethyl)amino)-1-oxopropan-2-yl)succinamide] (Ac-ITNA-NHCH2CN) | 1620 | – | –
8 | CC(C)C[C@H](NC(=O)OCc1ccccc1)C(=O)N[C@@H](C[C@@H]1CCNC1=O)C(O)S(=O)(=O)[O-].[Na+] (stereo partly shown) [GC376, reference compound] | – | – | inhibition rate (MPXV I7L protease; pH 7.5): below 50%
9 | CCC[C@H](NC(=O)[C@@H]1[C@H]2CCC[C@H]2CN1C(=O)[C@@H](NC(=O)[C@@H](NC(=O)c1cnccn1)C1CCCCC1)C(C)(C)C)C(=O)C(=O)NC1CC1 [Telaprevir, reference compound] | – | < 50 | –
10 | CCCCCCCCCCCCCCCCOCCCOP(=O)(O)CO[C@H](CO)Cn1ccc(N)nc1=O [Brincidofovir, reference compound] | – | – | EC50 (Vaccinia virus): 0.9 µM
11 | CC[C@H](C)[C@H](NC(C)=O)C(=O)N[C@@H](Cc1ccccc1)C(=O)N[C@@H](CC(N)=O)C(=O)N[C@@H](C)C(=O)NCC#N [compound 8, (S)-2-((S)-2-((2S,3S)-2-acetamido-3-methylpentanamido)-3-phenylpropanamido)-N^1-((S)-1-((cyanomethyl)amino)-1-oxopropan-2-yl)succinamide] (Ac-IFNA-NHCH2CN) | 71 | – | –
12 | Cc1cccc(C)c1OCC(=O)N[C@@H](Cc1ccccc1)[C@@H](O)C[C@H](Cc1ccccc1)NC(=O)[C@H](C(C)C)N1CCCNC1=O [Lopinavir, reference compound] | – | < 50 | –
13 | CC[C@H](C)[C@H](NC(=O)[C@@H](NC(C)=O)C(C)C)C(=O)N[C@@H](C)C(=O)NCC#N [compound 9, (2S,3S)-2-((S)-2-acetamido-3-methylbutanamido)-N-((S)-1-((cyanomethyl)amino)-1-oxopropan-2-yl)-3-methylpentanamide] | 400 | – | –
14 | CC[C@H](C)[C@H](NC(=O)[C@H](Cc1ccc(O)cc1)NC(=O)[C@@H]1CCCN1C(C)=O)C(=O)N[C@@H](C)C(=O)NCC#N [compound 7, (S)-1-acetyl-N-((S)-1-(((2S,3S)-1-(((S)-1-((cyanomethyl)amino)-1-oxopropan-2-yl)amino)-3-methyl-1-oxopentan-2-yl)amino)-3-(4-hydroxyphenyl)-1-oxopropan-2-yl)pyrrolidine-2-carboxamide] (Ac-PYIA-NHCH2CN) | 241 ± 29 | – | –
15 | CC(C)c1nc(CN(C)C(=O)N[C@H](C(=O)N[C@@H](Cc2ccccc2)C[C@H](O)[C@H](Cc2ccccc2)NC(=O)OCc2cncs2)C(C)C)cs1 [Ritonavir, reference compound] | – | < 50 | –
16 | CC(=O)N[C@@H](CC(=O)O)C(=O)N[C@@H](Cc1ccccc1)C(=O)N[C@@H](CO)C(=O)N[C@@H](C)C(=O)NCC#N [compound 6, (4S,7S,10S,13S)-13-acetamido-10-benzyl-1-cyano-7-(hydroxymethyl)-4-methyl-3,6,9,12-tetraoxo-2,5,8,11-tetraazapentadecan-15-oic acid] (Ac-DFSA-NHCH2CN) | 74 ± 29 | – | –
17 | CC[C@H](C)[C@H](NC(C)=O)C(=O)N[C@@H](Cc1ccccc1)C(=O)N[C@@H](Cc1ccccc1)C(=O)N[C@@H](C)C(=O)NCC#N [compound 1, (2S,3S)-2-acetamido-N-((S)-1-(((S)-1-(((S)-1-((cyanomethyl)amino)-1-oxopropan-2-yl)amino)-1-oxo-3-phenylpropan-2-yl)amino)-1-oxo-3-phenylpropan-2-yl)-3-methylpentanamide] (Ac-IFFA-NHCH2CN) | 171 | – | –
18 | Cn1cnc(Cn2c(=O)[nH]/c(=N\c3cc4cn(C)nc4cc3Cl)n(Cc3cc(F)c(F)cc3F)c2=O)n1 [Ensitrelvir, reference compound] | – | < 50 | –
19 | CC(C)(C)NC(=O)N[C@H](C(=O)N1C[C@H]2[C@@H]([C@H]1C(=O)NC(CC1CCC1)C(=O)C(N)=O)C2(C)C)C(C)(C)C (stereo partly shown) [Boceprevir, reference compound] | – | < 50 | –
